This is an account of results in patent publication US20250034182A1, “PHOSPHOLIPID COMPOUNDS AND METHODS OF MAKING AND USING THE SAME” (priority 2021, published 2025).

Format in all cases: cell-based
Data set [1] has as its system Respiratory syncytial virus recombinant with luciferase (RSV-Luc5) in HEp-2 cells. The experiment in a line: HEp-2 RSV-Luc5 384-well assay (EC50 RSVFLUC Hep2-384 v2, Example V). As to conditions: human respiratory syncytial virus, HEp-2, 72 h, read-out: RSV Hep-2 FLuc EC50 (v2) (nM) (per Ex. V). An excerpt:
(§1) HEp-2 cell line was purchased from ATCC (Manassas, VA Cat #CCL-23) and maintained in Dulbecco's […] (DMEM) (Corning, New York, NY, Cat #15-018CM) supplemented with 10% fetal bovine serum (FBS) (Hyclone, Logan, UT, Cat #SH30071-03) and 1× Penicillin-Streptonycin-L-Glutamine (Corning, New York, NY, Cat #30-009-CI). Cells were passaged 2 times per week to maintain sub-confluent densities and were used for experiments at passage 5-20. Respiratory syncytial virus recombinant with luciferase (RSV-Luc5) (≥1×107 TCID50/ml) was purchased from Microbiologics (Saint Cloud, MN). Viral replication was determined in HEp-2 cells in the following manner.
Compounds are prepared in 100% DMSO in 384-well polypropylene plates (Greiner, Monroe, NC, Cat #784201) with 8 compounds per plate in grouped replicates of 4 at 10 serially diluted concentrations (1:3). The serially diluted compounds were transferred to low dead volume Echo plates (Labcyte, Sunnyvale, CA, Cat #LP-0200).
The test compounds were spotted to 384-well assay plates (Greiner, Monroe, NC, Cat #781091) at 200 nL per well. HEp-2 cells were harvested and suspended in DMEM (supplemented with 10% FBS and 1× Penicillin-Streptomycin-L-Glutamine) and seeded to the pre-spotted assay plates at 4,000 cells per well in 30 μL. RSV-Luc5 viruses were diluted in DMEM (supplemented with 10% FBS and 1× Penicillin-Streptomycin-L-Glucamine) at 200,000 Infectious Units (IU) per mL and 10 μL per well was added to the assay plates containing cells and compounds, for an MOI=0.5. The assay plates were incubated for 3 days at 37° C. and 5% CO2. At the end of incubation, One-Glo reagent (Promega, Madison, WI, Cat #E6120) was prepared. The assay plates and One-Glo reagent were equilibrated to room temperature for at least 15 minutes. 40 μL per well of One-Glo reagent was added and the plates were incubated at room temp for 15 minutes before reading the luminescence signal on an EnVision multimode plate reader (Perkin Elmer, Waltham, MA). Remdesivir was used as positive control and DMSO was used as negative control. Values were normalized to the positive and negative controls (as 0% and 100% replication, respectively) and data was fitted using non-linear regression analysis by Gilead's dose response tool. The EC50 value for each compound was then determined as the concentration reducing the viral replication by 50%.

For data set [2] the test system is unchanged. The experiment in a line: HEp-2 RSV-Luc5 384-well assay (EC50 RSVFLUC Hep2-384, Example R). As to conditions: human respiratory syncytial virus, HEp-2, 72 h, read-out: RSV Hep-2 FLuc EC50 (nM) (per Ex. R).
Excerpt: as §1, with “Penicillin-Streptornycin-L-Glutamine” for “Penicillin-Streptonycin-L-Glutamine”, “(RSV-Luc5) direct pelleted virus” for “(RSV-Luc5)”
Compounds are prepared in 384-well polypropylene plates (Greiner, Monroe, NC, Cat #784201) with 8 compounds per plate in grouped replicates of 4 at 10 serially diluted concentrations (1:3).
HEp-2 cells were suspended in DMEM (supplemented with 10% FBS and 1×Penicillin-Streptonycin-L-Glutimine) and 60 μL of 4,000 cells per well were seeded into 384-well plates (Greiner, Monroe, NC, Cat #781080) using Biotek MultiFlo dispenser. After overnight incubation at 37° C. and 5% CO2, 0.4 uL of three-fold serial dilutions of compound was added to each well using a Biomek FX pipette station. RSV-Luc5 viruses were diluted in DMEM (supplemented with 10% FBS and 1× Penicillin-Streptonycin-L-Glutainie) at an MOI=0.5. Virus suspension was added to each 384-well compound plate at 20 uL per well using a Biotek MultiFlo dispenser. The assay plates were incubated for 3 days at 37° C. and 5% CO2. At the end of incubation, One-Glo reagent (Promega, Madison, WI, Cat #E6120) was prepared. The assay plate and the reagent were equilibrated to room temperature for 30 minutes. 50 uL per well of medium was removed from assay plate and 40 uL per well of One-Glo reagent was added to each plate by Biomek FX. The plates were sat at room temp for 15 minutes. Viral replication was then assessed by measuring luminescence signal using and Envision plate reader. Remdesivir was used as positive control and DMSO was used as negative control. Values were normalized to the positive and negative controls (as 0% and 100% replication, respectively) and data was fitted using non-linear regression analysis by Gilead's dose response tool. The EC50 value for each compound was then determined as the concentration reducing the viral replication by 50%.

Data set [3] in a line: RSV HEP2-CC50-384-V2 (per Ex. V). The settings on record: human.
Data set [4] concerns Recombinant Respiratory Syncytial virus strain A2 containing the firefly luciferase reporter (RSV-Fluc) in NHBE cells. The experiment in a line: RSV NHBE FLuc EC50 (Example I). As to conditions: human respiratory syncytial virus, 72 h, read-out: RSV NHBE FLuc EC50 (nM) (per Ex. I). An excerpt: Normal human bronchial epithelial (NHBE) cells are purchased from Lonza (Walkersville, MD Cat #CC-2540) and maintained in Bronchial Epithelial Cell Growth Medium (BEGM) (Lonza, Walkersville, MD, Cat #CC-3170) with all provided supplements in the BulletKit. Cells are passaged 2-3 times per week to maintain sub-confluent densities and are used for experiments at passages 2-4.
Recombinant Respiratory Syncytial virus strain A2 containing the firefly luciferase reporter between the P and M genes (RSV-Fluc, 6.3×10^6 TCID50/mL) is purchased from Viratree (Durham, NC, Cat #R^145).
NHBE cells (5×10^3/well) are seeded in 100 μL white wall/clear bottom 96-well plates (Corning) with culture medium and are incubated for 24 hours at 37° C. with 5% CO2. On the following day, three-fold serial dilutions of compounds prepared in DMSO are added to the wells using the HP D300e digital dispenser with normalization to the highest concentration of DMSO in all wells. The cells are then infected with RSV-Fluc diluted with BEGM media at an MOI of 0.1 for a final volume of 200 μL media/well. Uninfected and untreated wells are included as controls to determine compound efficacy against RSV-Fluc. Following incubation with compound and virus for three days at 37° C. with 5% CO2, 100 μL of culture supernatant is removed from each well and replaced with 100 μL of ONE-Glo luciferase reagent (Promega, Madison, WI, Cat #E6110). The plates are gently mixed by rocking for 10 minutes at 21° C. and luminescence signal is measured using an Envision plate reader (PerkinElmer). Values are normalized to the uninfected and infected DMSO controls (0% and 100% infection, respectively). Non-linear regression analysis is applied to determine the compound concentration at which 50% luminescence signal is reduced (EC50) using the XLfit4 add-in for MICROSOFT®EXCEL®. All experiments are performed in duplicate with two technical repeats each.

The nature of another data set: in vitro. As to conditions: human. As to the method:
(§2) Huh7 hepatoblastoma cells were seeded onto 96-well plates and incubated at 37° C. with 5% CO2 overnight. The plates were seeded at a cell concentration that will yield >70% confluent monolayers in each well after overnight incubation. Eight 3-fold serial dilutions of compounds were diluted in test media (MEM supplemented with 2% FBS and 50 μg/mL gentamicin). The highest test compound concentration was 50 μg/mL. 100 μL of each concentration was added to 5 test wells on the 96-well plate. Of these 5 test wells, 3 wells of each dilution were infected with dengue virus type 2, diluted in test media (approximately 2000 CCID50 per well for an MOI of 0.07). Test medium (100 μL) with no virus was added to 2 wells to represent the uninfected cytotoxicity controls. Six additional infected wells received 100 μL media alone as untreated virus controls. Further, 100 μL of media alone was added to 6 uninfected wells to serve as uninfected, untreated controls. Cultures were incubated at 37° C.+5% CO2 until >80% CPE is observed. After cytopathic effect (CPE) is observed microscopically, 0.011% neutral red dye was added for approximately 2 hours. The neutral red dye was removed and wells were rinsed once with PBS to remove residual, unincorporated dye. A 50:50 Sorensen citrate buffer/ethanol solution was added and incubated at room temperature for >30 minutes with agitation, followed by measurement of neutral red dye using a spectrophotometer at 540 nm. The resulting optical density measurement was converted to percent signal of the infected, untreated cell control normalizing to virus controls. EC50 and CC50 values were determined by linear regression analysis.

Data set [5] deals with dengue virus type 2 in Huh7 hepatoblastoma cells. Nature of the data set: Dengue Virus-2 Huh-7 EC50 (Example W). As to conditions: MOI of 0.07, CPE, neutral red dye, read-out: Dengue Virus-2 Huh-7 EC50 (nM) (per Ex. W). As to the method:
as §2

As usually defined, the EC50 is the midpoint of the concentration-response curve. One may read the CC50 as the concentration that lowers cell viability or growth by half. A higher CC50 goes with lower toxicity to the cells. With `CCCCCCCCCCCCCCCCCCOC[C@H](COP(=O)(O)OC[C@@]1(C#N)O[C@@H](c2ccc3c(N)ncnn23)[C@H](O)[C@@H]1O)OCc1ccc(OC)c(C#N)c1` [Compound 9, ((2R,3S,4R,5S)-5-(4-aminopyrrolo[2,1-f][1,2,4]triazin-7-yl)-2-cyano-3,4-dihydroxytetrahydrofuran-2-yl)methyl ((R)-2-((3-cyano-4-methoxybenzyl)oxy)-3-(octadecyloxy)propyl) hydrogen phosphate], the EC50 is 145 nM in data set [1] and 53 nM in data set [2]. Also, the CC50 at 3 days in data set [3] is greater than 48500 nM.
Turning to `CCCCCCCCCCCCCCCCCCC[C@H](COP(=O)(O)OC[C@@]1(C#N)O[C@@H](c2ccc3c(N)ncnn23)[C@H](O)[C@@H]1O)OCc1ccc(C#N)c(OC)c1` [Compound 27, ((2R,3S,4R)-5-(4-aminopyrrolo[2,1-f][1,2,4]triazin-7-yl)-2-cyano-3,4-dihydroxytetrahydrofuran-2-yl)methyl ((R)-2-((4-cyano-3-methoxybenzyl)oxy)henicosyl) hydrogen phosphate], the values for the EC50 in data set [2] and in data set [4] were 232 nM and 42 nM, respectively.
Regarding `CCCCCCCCCCCCCCCCCCOC[C@H](COP(=O)(O)OC[C@@]1(C#N)O[C@@H](c2ccc3c(N)ncnn23)[C@H](O)[C@@H]1O)Oc1cccc(C#N)c1` [Compound 50, ((2R,3S,4R,5S)-5-(4-aminopyrrolo[2,1-f][1,2,4]triazin-7-yl)-2-cyano-3,4-dihydroxytetrahydrofuran-2-yl)methyl ((R)-2-(3-cyanophenoxy)-3-(octadecyloxy)propyl) hydrogen phosphate], the half-maximal effective concentration (EC50) is 91 nM in data set [1], 12 nM in data set [2] and 18 nM in data set [4]. The compound further registered a CC50 at 3 days in data set [3] greater than 50000 nM.
In the same order, the values of `CCCCCCCCCCCCCCCCCCOC[C@H](COP(=O)(O)OC[C@@]1(C#N)O[C@@H](c2ccc3c(N)ncnn23)[C@H](O)[C@@H]1O)OCc1cncc(C#N)c1` [Compound 66, ((2R,3S,4R)-5-(4-aminopyrrolo[2,1-f][1,2,4]triazin-7-yl)-2-cyano-3,4-dihydroxytetrahydrofuran-2-yl)methyl ((R)-2-((5-cyanopyridin-3-yl)methoxy)-3-(octadecyloxy)propyl) hydrogen phosphate] are 56 nM, 21 nM, 50 nM and 49100 nM.
For the compound `CCCCCCCCCCCCCCCCCCOC[C@@H](COP(=O)(O)OC[C@@]1(C#N)O[C@@H](c2ccc3c(N)ncnn23)[C@H](O)[C@@H]1O)OCc1ccc(C#N)cc1OC` [Compound 67, ((2R,3S,4R)-5-(4-aminopyrrolo[2,1-f][1,2,4]triazin-7-yl)-2-cyano-3,4-dihydroxytetrahydrofuran-2-yl)methyl ((S)-2-((4-cyano-2-methoxybenzyl)oxy)-3-(octadecyloxy)propyl) hydrogen phosphate], the values for the EC50 in data set [2] and in data set [4] were 229 nM and 28 nM, respectively.
`CCCCCCCCCCCCCCOC[C@H](COP(=O)(O)OC[C@@]1(C#N)O[C@@H](c2ccc3c(N)ncnn23)[C@H](O)[C@@H]1O)Oc1ccc(C#N)cn1` [Compound 71]: in the data set “in vitro”, the CC50 was greater than 50000 nM. The EC50 in data set [1] was 2580 nM; in data set [4], 199 nM; in data set [5] it was 33000 nM. In data set [3], the CC50 at 3 days is greater than 50000 nM.
Consider `CCCCCCCCCCCCCCOC[C@H](COP(=O)(O)OC[C@@]1(C#N)O[C@@H](c2ccc3c(N)ncnn23)[C@H](O)[C@@H]1O)Oc1ccc(C#N)nc1` [Compound 77, ((2R,3S,4R)-5-(4-aminopyrrolo[2,1-f][1,2,4]triazin-7-yl)-2-cyano-3,4-dihydroxytetrahydrofuran-2-yl)methyl ((R)-2-((6-cyanopyridin-3-yl)oxy)-3-(tetradecyloxy)propyl) hydrogen phosphate], for which the EC50 was determined as 90 nM in data set [1], 222 nM in data set [2] and 12 nM in data set [4]. The compound further registered a CC50 at 3 days in data set [3] greater than 50000 nM.
